Laboratory results taken from US20200107546A1, “METHODS AND COMPOSITIONS FOR CONTROLLING UNDESIRED VEGETATION SUCH AS INVASIVE ANNUAL GRASSES” (priority 2018, published 2020).

Experiments:
[1] = tested on: perennial grasses Bromus inermis (smooth brome) and Agropyron smithii (western wheatgrass); test: Example 2 post-emergence field application, injury and cover of desirable perennial grasses; assay type: in vivo
Procedure: (§1) In the following Examples, desirable perennial grasses were treated to control the invasive annual grass Bromus tectorum (cheatgrass) either pre-emergence or post-emergence with either indaziflam, imazapic, imazamox, glyphosate, or combinations thereof. Imazapic, glyphosate, and combinations comprising either imazapic and/or glyphosate were used for purposes of comparison.
(§2) Table 3 summarizes the herbicidal efficacies (% Control), damage caused to desired perennial grasses (% Injury), and cover (% Cover) when the active ingredients of Table 1 were applied to perennial grasses of species Bromus inermis (smooth brome) and Agropyron smithii (western wheatgrass).
(§3) All treatments include 0.25% NIS.
(§4) Imazapic, indaziflam, imazamox, and a combination of indaziflam and imazamox were applied via a backpack research sprayer to perennial grasses to control Bromus tectorum post-emergence.

[2] = tested on: Bromus tectorum (cheatgrass); test: Example 2 post-emergence field application, control of Bromus tectorum; assay type: in vivo; details: Plateau 7 oz/A, Esplanade 200SC 7 oz/A, Raptor 6 oz/A, 0.25% NIS
Procedure: as §1, §2, §3, §4

[3] = tested on: Bromus tectorum (cheatgrass); test: Example 3 pre-emergence field application, control and biomass of Bromus tectorum; assay type: in vivo; details: for % Control Bromus tectorum / Biomass (kg/ha) Bromus tectorum: first year after treatment, 0.25% NIS
Procedure: as §1
(§5) Table 3 summarizes the herbicidal efficacies (% Control) and damage caused to desired perennial grasses (% Injury) during the first year after the active ingredients of Table 1 were applied to perennial grasses of species Hesperostipa comata (needle-and-thread), Aristida purpurea (purple three-awn) and Bouteloua gracilis (blue grama). Table 4 further sets forth the biomass in kilograms per hectare (kg/ha) of Bromus tectorum and perennial grass measured in the first year after treatment.
as §3
(§6) Imazapic, indaziflam, and a combination of indaziflam and imazamox were applied via a backpack research sprayer to desirable perennial grasses to control unwanted Bromus tectorum pre-emergence.

[4] = tested on: perennial grasses Hesperostipa comata (needle-and-thread), Aristida purpurea (purple three-awn) and Bouteloua gracilis (blue grama); test: Example 3 pre-emergence field application, injury and biomass of desirable perennial grasses; assay type: in vivo
Procedure: as §1, §5, §3, §6

[5] = Soil half-life of herbicides
Text: As used herein, “short-residual” denotes an herbicide having a median soil half-life of no greater than 50 days, such as less than 40 days or less than 30 days.
Imazamox is a short-residual imidazolinone herbicide having a soil half-life of about 20-30 days. Additionally, imazamethabenz methyl is a short-residual imidazolinone herbicide having a soil half-life of about 25-36 days.

[6] = Year 1 after treatment, post-emergence, Plateau 7 oz/A, Esplanade 200SC 7 oz/A, Raptor 6 oz/A, 0.25% NIS
[7] = Year 2 after treatment, post-emergence, Plateau 7 oz/A, Esplanade 200SC 7 oz/A, Raptor 6 oz/A, 0.25% NIS
[8] = Plateau 7 oz/A, Esplanade 200SC 7 oz/A, Raptor 6 oz/A
[9] = pre-emergence, first year after treatment, Esplanade 200SC 3.5 oz/A, 0.25% NIS
[10] = pre-emergence, first year after treatment, Esplanade 200SC 5 oz/A, 0.25% NIS
[11] = pre-emergence, first year after treatment, Plateau 7 oz/A, Esplanade 200SC 7 oz/A, Raptor 6 oz/A, 0.25% NIS
[12] = in vivo, 1 year after treatment

Row | Compound | % Injury Perennial grasses [1, 6] [%] | % Cover Perennial grasses [1, 7] [%] | % Injury Perennial grasses [1, 7] [%] | % Control Bromus tectorum ([2]; Year 1 after treatment) [%] | % Control Bromus tectorum ([2]; Year 2 after treatment) [%] | % Control Bromus tectorum [3, 8] [%] | Biomass (kg/ha) Bromus tectorum [3, 8] [kg/ha] | Biomass (kg/ha) Perennial grasses [4, 11] [kg/ha] | Median soil half-life [5] [days] | other results
1 | Cc1ccc2c(c1)[C@H](Nc1nc(N)nc(C(C)F)n1)[C@@H](C)C2 (mixture of isomers) [Indaziflam, N2-[(1R,2S)-2,3-dihydro-2,6-dimethyl-1H-inden-1-yl]-6-[(1RS)-1-fluoroethyl]-1,3,5-triazine-2,4-diamine] | 0 | 72 | 0 | 37 | 93 | 80 | 32 | 75 | – | % Control Bromus tectorum ([3]; Esplanade 200SC 3.5 oz/A): 72%; Biomass (kg/ha) Bromus tectorum ([3]; Esplanade 200SC 3.5 oz/A): 83 kg/ha; % Control Bromus tectorum ([3]; Esplanade 200SC 5 oz/A): 82%; Biomass (kg/ha) Bromus tectorum ([3]; Esplanade 200SC 5 oz/A): 18 kg/ha; control of invasive Bromus tectorum ([3]; indaziflam alone, span over the rates 3.5, 5 and 7 oz/A): 72-82%; % Injury Perennial grasses [4, 9]: 10%; Biomass (kg/ha) Perennial grasses [4, 9]: 54 kg/ha; % Injury Perennial grasses [4, 10]: 0%; Biomass (kg/ha) Perennial grasses [4, 10]: 63 kg/ha; % Injury Perennial grasses [4, 11]: 5%; Perennial grass biomass ([4]; pre-emergence, indaziflam alone, span over the rates 3.5, 5 and 7 oz/A): 54-75 kg/ha
2 | Cc1cnc(C2=NC(=O)C(C)(C(C)C)N2)c(C(=O)O)c1 (stereo not drawn) [Imazapic] | – | 72 | – | 97 | 77 | 90 | 7 | 91 | 120 | % Injury Perennial grasses [1, 12]: 15%; % Injury Perennial grasses ([1]; in vivo, 2 year after treatment): 1%; % Injury Perennial grasses [4, 12]: 10%
3 | CC(C)C1(C)N=C(c2ncccc2C(=O)O)NC1=O (stereo not drawn) [Imazapyr] | – | – | – | – | – | – | – | – | 83 | –
4 | CCc1cnc(C2=NC(C)(C(C)C)C(=O)N2)c(C(=O)O)c1 (stereo not drawn) [Imazethapyr] | – | – | – | – | – | – | – | – | 75 | –
5 | COCc1cnc(C2=NC(C)(C(C)C)C(=O)N2)c(C(=O)O)c1 (racemic) [Imazamox, 2-[(RS)-4-isopropyl-4-methyl-5-oxo-2-imidazolin-2-yl]-5-methoxymethylnicotinic acid] | 0 | 63 | 0 | 98 | 20 | – | – | – | – | –
